Results taken from patent publication US11045455B2, “Azetidine derivative, preparation method therefor, and use thereof” (SICHUAN KELUN-BIOTECH BIOPHARMACEUTICAL CO., LTD., priority 2016, dated 2021).
Counter-ions that a name gives are not always drawn. Like-named read-outs stand apart in the source and are kept apart here.

Assays:
JAK1 = JAK1 (Homo sapiens (Human), UniProt P23458); experiment: JAK1 enzymatic inhibition assay (ADP-Glo luminescence); assay type: biochemical
Method: (§3) Test Materials • JAK1, JAK2, JAK3 and TYK2 enzymes were purchased from Life Technologies; and substrate GFP-STAT1 was purchased from Life Technologies.
(§4) Test compounds, enzymes, the substrate and ATP were diluted to the desired concentrations with the assay buffer (40 mM Tris-HCl, pH 7.4, 20 mM MgCl2, 0.1% BSA). The former three were added into a multiple well plate, and incubated at room temperature after being mixed homogeneously. ATP was added to initiate the kinase reaction, and incubation at room temperature was performed. ADP-Glo was added, and incubation at room temperature was performed. The kinase detector reagent was then added, and incubation at room temperature was performed. The luminescence intensity of each test group was detected, and the half maximal inhibitory concentration (IC50) value was calculated.

JAK2 = JAK2 (Homo sapiens (Human), UniProt O60674); experiment: JAK2 enzymatic inhibition assay (ADP-Glo luminescence); assay type: biochemical
Method: as §3, §4

hERG potassium channel = hERG potassium channel (Homo sapiens (Human), UniProt Q12809); experiment: Predictor hERG Fluorescence Polarization Assay; assay type: binding; conditions: tested at 3, 10 and 30 μM
Method: Experimental Example 2: Safety Test
The effect of test compounds on hERG potassium channel were determined using Predictor™ hERG Fluorescence Polarization Assay at concentrations of 3, 10, and 30 μM.

JAK3 = JAK3 (Homo sapiens (Human), UniProt P52333); experiment: JAK3 enzymatic inhibition assay (ADP-Glo luminescence); assay type: biochemical
From the text: (§1) Experimental Example 1: JAK1, JAK2, JAK3 and TYK2 Enzymatic Inhibition Assay

TYK2 = TYK2 (Homo sapiens (Human), UniProt P29597); experiment: TYK2 enzymatic inhibition assay (LanthaScreen TR-FRET); assay type: biochemical
Method: as §1
As for the TYK2 enzyme, Tb-anti-pSTAT1 was added, and incubation at room temperature was performed.

CYP1A2 = CYP1A2 (Homo sapiens (Human), UniProt P05177); experiment: CYP450 enzyme test, P450-Glo screening system, CYP1A2; assay type: in vitro ADME; conditions: read-out: IC50 (μM) CYP1A2
From the text: (§2) CYP450 is the most important enzymatic system in drug metabolism. The enzymes involved in the metabolism interact with a drug, and mainly include CYP1A2, CYP2D6 and CYP3A4. In the CYP450 enzyme test, P450-Glo™ CYP1A2 screening system was employed to determine the inhibitory activity of compounds on CYP1A2 and CYP3A4. The Vivid® CYP2D6 Cyan screening kit was employed to determine the inhibitory activity of test compounds on CYP2D6.

CYP2D6 = CYP2D6 (Homo sapiens (Human), UniProt P10635); experiment: CYP450 enzyme test, Vivid CYP2D6 Cyan screening kit; assay type: in vitro ADME
From the text: as §2

CYP3A4 = CYP3A4 (Homo sapiens (Human), UniProt P08684); experiment: CYP450 enzyme test, P450-Glo screening system, CYP3A4; assay type: in vitro ADME
From the text: as §2

[1] = Pharmacokinetic study in rats, intravenous (IV) administration; assay type: in vivo; conditions: male, SD, rat, plasma, IV administration at 1 mg/kg, 0-24 h
Method: Experimental Example 3: Pharmacokinetic Studies
To study the pharmacokinetic characteristics of test compounds, the test compounds were administrated by intravenous (IV) and gavage (PO) routes to male SD rats. The dosage for IV administration was 1 mg/kg, and that for PO administration was 0.5-5 mg/kg. The vehicle is 10% DMSO: 10% solutol: 80% physiological saline, or 5% DMSO: 5% solutol: 90% physiological saline, or 10% DMSO: 60% PEG: 30% physiological saline. Blood was collected at various time points after administration. Plasma samples were analyzed by LC-MS/MS after protein precipitation process with acetonitrile.

CYP2D6, sequence (P10635 whole entry): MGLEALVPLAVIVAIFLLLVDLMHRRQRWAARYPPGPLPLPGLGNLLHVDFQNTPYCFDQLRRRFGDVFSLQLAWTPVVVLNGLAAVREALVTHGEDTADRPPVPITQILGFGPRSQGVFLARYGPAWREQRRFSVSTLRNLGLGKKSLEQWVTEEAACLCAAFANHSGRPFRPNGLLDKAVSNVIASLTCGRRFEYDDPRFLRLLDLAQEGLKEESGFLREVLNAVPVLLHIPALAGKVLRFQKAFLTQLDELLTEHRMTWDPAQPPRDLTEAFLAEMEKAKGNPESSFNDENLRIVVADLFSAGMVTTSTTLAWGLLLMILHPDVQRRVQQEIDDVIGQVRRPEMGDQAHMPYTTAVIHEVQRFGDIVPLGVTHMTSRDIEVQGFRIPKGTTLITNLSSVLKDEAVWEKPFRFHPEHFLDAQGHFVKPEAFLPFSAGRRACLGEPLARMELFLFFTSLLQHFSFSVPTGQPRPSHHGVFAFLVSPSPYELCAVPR
JAK2, sequence (O60674 whole entry): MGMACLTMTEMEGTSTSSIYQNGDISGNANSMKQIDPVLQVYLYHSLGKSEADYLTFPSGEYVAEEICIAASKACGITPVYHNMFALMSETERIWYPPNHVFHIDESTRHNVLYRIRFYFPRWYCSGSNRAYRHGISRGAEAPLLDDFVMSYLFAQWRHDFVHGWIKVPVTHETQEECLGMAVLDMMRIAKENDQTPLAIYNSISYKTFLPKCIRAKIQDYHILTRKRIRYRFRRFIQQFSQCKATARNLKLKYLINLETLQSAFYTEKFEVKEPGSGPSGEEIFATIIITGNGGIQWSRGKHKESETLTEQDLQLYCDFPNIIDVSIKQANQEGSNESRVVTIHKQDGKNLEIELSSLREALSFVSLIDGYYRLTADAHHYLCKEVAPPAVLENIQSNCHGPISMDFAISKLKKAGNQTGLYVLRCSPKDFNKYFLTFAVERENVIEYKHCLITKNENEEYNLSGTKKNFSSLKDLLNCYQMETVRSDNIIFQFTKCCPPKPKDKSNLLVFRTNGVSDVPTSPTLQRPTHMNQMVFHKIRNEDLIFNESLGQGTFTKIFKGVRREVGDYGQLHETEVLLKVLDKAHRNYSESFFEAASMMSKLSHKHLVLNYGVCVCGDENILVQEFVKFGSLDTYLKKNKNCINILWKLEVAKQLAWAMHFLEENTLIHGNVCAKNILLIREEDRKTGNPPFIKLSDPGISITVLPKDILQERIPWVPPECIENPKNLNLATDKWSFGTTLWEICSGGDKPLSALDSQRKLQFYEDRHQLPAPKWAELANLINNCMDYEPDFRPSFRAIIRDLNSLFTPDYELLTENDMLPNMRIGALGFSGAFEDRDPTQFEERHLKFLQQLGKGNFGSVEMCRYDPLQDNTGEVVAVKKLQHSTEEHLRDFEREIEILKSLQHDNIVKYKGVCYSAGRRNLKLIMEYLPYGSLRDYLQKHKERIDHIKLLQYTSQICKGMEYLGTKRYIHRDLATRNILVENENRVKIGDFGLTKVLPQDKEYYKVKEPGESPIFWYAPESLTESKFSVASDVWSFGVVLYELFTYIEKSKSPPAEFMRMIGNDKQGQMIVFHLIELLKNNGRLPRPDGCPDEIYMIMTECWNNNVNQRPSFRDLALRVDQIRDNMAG
TYK2, sequence (P29597 whole entry): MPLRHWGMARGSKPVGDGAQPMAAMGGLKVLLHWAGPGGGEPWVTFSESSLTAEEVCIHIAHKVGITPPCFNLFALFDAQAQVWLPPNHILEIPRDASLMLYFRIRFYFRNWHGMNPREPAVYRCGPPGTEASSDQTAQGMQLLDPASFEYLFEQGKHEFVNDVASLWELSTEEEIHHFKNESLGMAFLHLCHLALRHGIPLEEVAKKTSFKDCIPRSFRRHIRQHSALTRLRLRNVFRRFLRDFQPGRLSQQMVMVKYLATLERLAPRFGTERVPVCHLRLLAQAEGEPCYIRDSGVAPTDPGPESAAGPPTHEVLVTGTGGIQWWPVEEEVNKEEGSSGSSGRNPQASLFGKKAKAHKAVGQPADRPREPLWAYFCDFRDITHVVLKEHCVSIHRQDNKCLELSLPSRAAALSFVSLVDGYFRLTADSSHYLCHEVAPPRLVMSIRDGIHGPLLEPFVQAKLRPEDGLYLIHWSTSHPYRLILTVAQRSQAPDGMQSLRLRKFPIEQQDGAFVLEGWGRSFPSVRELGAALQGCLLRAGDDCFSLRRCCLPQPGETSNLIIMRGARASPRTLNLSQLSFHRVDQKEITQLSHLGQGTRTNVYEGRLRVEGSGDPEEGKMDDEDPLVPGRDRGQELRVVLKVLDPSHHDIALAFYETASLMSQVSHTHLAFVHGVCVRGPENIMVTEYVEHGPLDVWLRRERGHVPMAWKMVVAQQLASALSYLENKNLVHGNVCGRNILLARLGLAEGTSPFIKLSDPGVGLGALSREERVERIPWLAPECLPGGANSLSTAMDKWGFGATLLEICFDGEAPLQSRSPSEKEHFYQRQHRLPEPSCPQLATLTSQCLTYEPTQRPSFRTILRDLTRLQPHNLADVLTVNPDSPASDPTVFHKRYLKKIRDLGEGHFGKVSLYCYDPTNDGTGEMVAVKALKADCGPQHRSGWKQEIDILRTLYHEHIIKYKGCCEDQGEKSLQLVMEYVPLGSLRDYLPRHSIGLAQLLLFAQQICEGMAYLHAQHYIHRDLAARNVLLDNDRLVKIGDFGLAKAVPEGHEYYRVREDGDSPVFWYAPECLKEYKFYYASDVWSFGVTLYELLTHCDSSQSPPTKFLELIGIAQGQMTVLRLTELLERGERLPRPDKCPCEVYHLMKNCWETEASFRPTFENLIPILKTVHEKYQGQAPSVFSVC
hERG potassium channel, sequence (Q12809 whole entry): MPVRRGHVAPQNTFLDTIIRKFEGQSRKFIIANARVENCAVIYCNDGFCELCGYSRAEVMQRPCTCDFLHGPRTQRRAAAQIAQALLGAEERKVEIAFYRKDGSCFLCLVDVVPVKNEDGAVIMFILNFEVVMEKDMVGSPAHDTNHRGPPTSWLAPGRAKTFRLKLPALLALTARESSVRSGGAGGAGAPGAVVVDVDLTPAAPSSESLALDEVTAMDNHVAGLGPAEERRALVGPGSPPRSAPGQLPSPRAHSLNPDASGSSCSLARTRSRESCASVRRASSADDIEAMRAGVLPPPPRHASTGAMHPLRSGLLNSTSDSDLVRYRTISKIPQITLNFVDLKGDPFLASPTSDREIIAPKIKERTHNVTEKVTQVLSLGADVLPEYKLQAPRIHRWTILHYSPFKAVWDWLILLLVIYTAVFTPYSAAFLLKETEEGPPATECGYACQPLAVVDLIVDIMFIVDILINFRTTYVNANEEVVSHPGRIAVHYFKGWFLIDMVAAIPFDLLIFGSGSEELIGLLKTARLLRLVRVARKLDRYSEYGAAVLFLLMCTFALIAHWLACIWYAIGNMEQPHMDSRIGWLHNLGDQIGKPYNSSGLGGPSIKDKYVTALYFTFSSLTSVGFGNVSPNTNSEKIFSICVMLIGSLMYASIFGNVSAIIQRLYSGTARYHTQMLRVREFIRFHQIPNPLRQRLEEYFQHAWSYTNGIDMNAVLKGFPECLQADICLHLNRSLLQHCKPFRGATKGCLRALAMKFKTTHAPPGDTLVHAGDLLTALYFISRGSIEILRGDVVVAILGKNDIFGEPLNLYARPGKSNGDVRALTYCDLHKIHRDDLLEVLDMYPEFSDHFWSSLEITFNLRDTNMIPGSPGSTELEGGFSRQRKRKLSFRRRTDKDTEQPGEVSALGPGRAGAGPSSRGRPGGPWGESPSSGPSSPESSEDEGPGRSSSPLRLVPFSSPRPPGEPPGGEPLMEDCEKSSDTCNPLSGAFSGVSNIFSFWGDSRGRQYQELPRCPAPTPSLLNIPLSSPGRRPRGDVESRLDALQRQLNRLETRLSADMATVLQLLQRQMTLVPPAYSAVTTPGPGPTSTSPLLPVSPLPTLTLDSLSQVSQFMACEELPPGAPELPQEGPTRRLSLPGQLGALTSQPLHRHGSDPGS
JAK1, sequence (P23458 whole entry): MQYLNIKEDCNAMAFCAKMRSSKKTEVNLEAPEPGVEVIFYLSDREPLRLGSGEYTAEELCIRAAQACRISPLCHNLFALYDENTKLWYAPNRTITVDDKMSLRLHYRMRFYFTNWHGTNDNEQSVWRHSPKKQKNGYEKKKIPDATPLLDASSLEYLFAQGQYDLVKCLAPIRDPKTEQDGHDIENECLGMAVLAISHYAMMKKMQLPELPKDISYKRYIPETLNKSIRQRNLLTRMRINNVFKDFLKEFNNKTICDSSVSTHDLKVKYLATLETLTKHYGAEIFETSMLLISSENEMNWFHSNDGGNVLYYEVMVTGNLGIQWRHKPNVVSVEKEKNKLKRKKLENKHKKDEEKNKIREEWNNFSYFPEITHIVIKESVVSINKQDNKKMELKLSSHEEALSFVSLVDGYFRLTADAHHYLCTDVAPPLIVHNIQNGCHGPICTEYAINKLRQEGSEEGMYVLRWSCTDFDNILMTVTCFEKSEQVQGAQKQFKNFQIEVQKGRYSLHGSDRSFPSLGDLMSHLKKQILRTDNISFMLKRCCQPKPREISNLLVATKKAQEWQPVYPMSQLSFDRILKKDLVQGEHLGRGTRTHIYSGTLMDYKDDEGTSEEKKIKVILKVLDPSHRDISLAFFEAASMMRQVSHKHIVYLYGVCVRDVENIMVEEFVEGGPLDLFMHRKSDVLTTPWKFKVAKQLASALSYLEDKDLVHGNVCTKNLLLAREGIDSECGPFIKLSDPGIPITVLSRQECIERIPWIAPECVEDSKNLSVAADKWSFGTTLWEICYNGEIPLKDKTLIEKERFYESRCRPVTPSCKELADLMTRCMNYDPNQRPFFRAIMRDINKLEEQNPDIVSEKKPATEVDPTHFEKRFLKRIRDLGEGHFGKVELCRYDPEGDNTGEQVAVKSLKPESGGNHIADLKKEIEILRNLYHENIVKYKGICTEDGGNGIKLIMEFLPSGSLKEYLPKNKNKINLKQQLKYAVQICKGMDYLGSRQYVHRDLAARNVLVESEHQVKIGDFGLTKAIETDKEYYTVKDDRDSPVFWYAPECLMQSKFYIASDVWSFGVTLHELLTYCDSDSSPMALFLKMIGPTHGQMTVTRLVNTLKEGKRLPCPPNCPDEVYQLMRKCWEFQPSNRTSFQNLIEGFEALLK

Compound	IC50 (JAK1) [nM]	IC50 (JAK2) [nM]	IC50 (hERG potassium channel) [nM]	also measured
CN(C)S(=O)(=O)N1CC(CC#N)(n2cc(-c3ccnc4[nH]ccc34)cn2)C1 [Compound 14, 3-(4-(1H-pyrrolo[2,3-b]pyridin-4-yl)-1H-pyrazol-1-yl)-3-(cyanomethyl)-N,N-dimethylazetidine-1-sulfonamide]	1.3	0.5	> 30000	–
CCS(=O)(=O)N1CC([C@H](C)C#N)(n2cc(-c3c(C#N)cnc4[nH]ccc34)cn2)C1 [Compound 45-2, (S)-4-(1-(3-(1-cyanoethyl)-1-(ethylsulfonyl)azetidin-3-yl)-1H-pyrazol-4-yl)-1H-pyrrolo[2,3-b]pyridine-5-carbonitrile]	1.85	1.11	> 30000	IC50 (JAK3): 10 to 30 nM; IC50 (TYK2): ~30 nM
CCCS(=O)(=O)N1CC(CC#N)(n2cc(-c3ccnc4[nH]ccc34)cn2)C1 [Compound 23, 2-(3-(4-(1H-pyrrolo[2,3-b]pyridin-4-yl)-1H-pyrazol-1-yl)-1-(propylsulfonyl)azetidin-3-yl)acetonitrile]	2.41	0.89	> 30000	–
CCS(=O)(=O)N1CC(CC#N)(n2cc(-c3ncnc4[nH]ccc34)c(C)n2)C1 [Compound 49, 2-(1-(ethylsulfonyl)-3-(3-methyl-4-(7H-pyrrolo[2,3-d]pyrimidin-4-yl)-1H-pyrazol-1-yl)azetidin-3-yl)acetonitrile]	–	1.21	> 30000	IC50 (CYP1A2): > 10 µM; IC50 (CYP2D6): > 10 µM; IC50 (CYP3A4): > 10 µM
N#CCC1(n2cc(-c3ccnc4[nH]ccc34)cn2)CN(S(=O)(=O)N2CCCC2)C1 [Compound 35, 2-(3-(4-(1H-pyrrolo[2,3-b]pyridin-4-yl)-1H-pyrazol-1-yl)-1-(pyrrolidin-1-ylsulfonyl)azetidin-3-yl)acetonitrile]	1.46	1.4	> 30000	IC50 (JAK3): > 30 nM; IC50 (TYK2): > 30 nM
CCS(=O)(=O)N1CC(CC#N)(n2cc(-c3ccnc4[nH]ccc34)c(Cl)n2)C1 [Compound 48, 2-(3-(3-chloro-4-(1H-pyrrolo[2,3-b]pyridin-4-yl)-1H-pyrazol-1-yl)-1-(ethylsulfonyl)azetidin-3-yl)acetonitrile]	5.66	1.4	> 30000	IC50 (CYP1A2): > 10 µM; IC50 (CYP2D6): > 10 µM; IC50 (CYP3A4): > 10 µM
CCS(=O)(=O)N1CC(CC#N)(n2cc(-c3ccnc4[nH]ccc34)c(C)n2)C1 [Compound 13, 2-(1-(ethylsulfonyl)-3-(3-methyl-4-(1H-pyrrolo[2,3-b]pyridin-4-yl)-1H-pyrazol-1-yl)azetidin-3-yl)acetonitrile]	2.89	1.44	> 30000	IC50 (JAK3): > 30 nM; IC50 (TYK2): ~30 nM
CS(=O)(=O)N1CC(CC#N)(n2cc(-c3c(C#N)cnc4[nH]ccc34)cn2)C1 [Compound 2, 4-(1-(3-(cyanomethyl)-1-(methylsulfonyl)azetidin-3-yl)-1H-pyrazol-4-yl)-1H-pyrrolo[2,3-b]pyridine-5-carbonitrile]	0.17	0.42	> 30000	–
CCS(=O)(=O)N1CC(C(C)C#N)(n2cc(-c3c(C#N)cnc4[nH]ccc34)cn2)C1 (centres unmarked) [Compound 45, 4-(1-(3-(1-cyanoethyl)-1-(ethylsulfonyl)azetidin-3-yl)-1H-pyrazol-4-yl)-1H-pyrrolo[2,3-b]pyridine-5-carbonitrile]	1.66	3.22	–	–
CC1(S(=O)(=O)N2CC(CC#N)(n3cc(-c4ccnc5[nH]ccc45)cn3)C2)CC1 [Compound 31, 2-(3-(4-(1H-pyrrolo[2,3-b]pyridin-4-yl)-1H-pyrazol-1-yl)-1-((1-methylcyclopropyl)sulfonyl)azetidin-3-yl)acetonitrile]	0.72	1.23	> 30000	AUC(0-t) [1]: 540 ng·h/mL; IC50 (JAK3): 23.6 nM
CCS(=O)(=O)N1CC([C@H](C)C#N)(n2cc(-c3ncnc4[nH]ccc34)cn2)C1 [Compound 12-2, (S)-2-(3-(4-(7H-pyrrolo[2,3-d]pyrimidin-4-yl)-1H-pyrazol-1-yl)-1-(ethylsulfonyl)azetidin-3-yl)propanenitrile]	–	1.81	> 30000	IC50 (JAK3): 10 to 30 nM; IC50 (TYK2): ~30 nM
CCS(=O)(=O)N1CC(CC#N)(n2cc(C)c(-c3ncnc4[nH]ccc34)c2)C1 [Compound 56, 2-(1-(ethylsulfonyl)-3-(3-methyl-4-(7H-pyrrolo[2,3-d]pyrimidin-4-yl)-1H-pyrrol-1-yl)azetidin-3-yl)acetonitrile]	3.52	1.76	–	–
N#CCC1(n2cc(-c3c(C#N)cnc4[nH]ccc34)cn2)CN(S(=O)(=O)CCC(F)(F)F)C1 [Compound 44, 4-(1-(3-(cyanomethyl)-1-((3,3,3-trifluoropropyl)sulfonyl)azetidin-3-yl)-1H-pyrazol-4-yl)-1H-pyrrolo[2,3-b]pyridine-5-carbonitrile]	1.95	3.93	–	–
N#CCC1(n2cc(-c3ccnc4[nH]ccc34)cn2)CN(S(=O)(=O)C2CC2)C1 [Compound 26, 2-(3-(4-(1H-pyrrolo[2,3-b]pyridin-4-yl)-1H-pyrazol-1-yl)-1-(cyclopropylsulfonyl)azetidin-3-yl)acetonitrile]	0.46	0.37	> 30000	–
CCCS(=O)(=O)N1CC(CC#N)(n2cc(-c3c(C#N)cnc4[nH]ccc34)cn2)C1 [Compound 40, 4-(1-(3-(cyanomethyl)-1-(propylsulfonyl)azetidin-3-yl)-1H-pyrazol-4-yl)-1H-pyrrolo[2,3-b]pyridine-5-carbonitrile]	0.97	2.24	–	–
CCS(=O)(=O)N1CC(CC#N)(n2cc(-c3c(Cl)cnc4[nH]ccc34)cn2)C1 [Compound 50-HCl, 2-(3-(4-(5-chloro-1H-pyrrolo[2,3-b]pyridin-4-yl)-1H-pyrazol-1-yl)-1-(ethylsulfonyl)azetidin-3-yl)acetonitrile Hydrochloride Salt]	–	–	–	IC50 (JAK2; Hydrochloride Salt): 0.62 nM
CCS(=O)(=O)N1CC(CC#N)(n2cc(-c3c(F)cnc4[nH]ccc34)cn2)C1 [Compound 52, 2-(1-(ethylsulfonyl)-3-(4-(5-fluoro-1H-pyrrolo[2,3-b]pyridin-4-yl)-1H-pyrazol-1-yl)azetidin-3-yl)acetonitrile]	–	0.4	> 30000	IC50 (CYP1A2): > 10 µM; IC50 (CYP2D6): > 10 µM; IC50 (CYP3A4): > 10 µM
CN(C)S(=O)(=O)N1CC(CC#N)(n2cc(-c3c(C#N)cnc4[nH]ccc34)cn2)C1 [Compound 34, 3-(4-(5-cyano-1H-pyrrolo[2,3-b]pyridin-4-yl)-1H-pyrazol-1-yl)-3-(cyanomethyl)-N,N-dimethylazetidine-1-sulfonamide]	0.8	1.66	–	–
CCS(=O)(=O)N1CC([C@@H](C)C#N)(n2cc(-c3c(C#N)cnc4[nH]ccc34)cn2)C1 [Compound 45-1, (R)-4-(1-(3-(1-cyanoethyl)-1-(ethylsulfonyl)azetidin-3-yl)-1H-pyrazol-4-yl)-1H-pyrrolo[2,3-b]pyridine-5-carbonitrile]	1.65	1.17	> 30000	IC50 (JAK3): 10 to 30 nM; IC50 (TYK2): ~30 nM
CCS(=O)(=O)N1CC(CC#N)(n2ccc(-c3c(C#N)cnc4[nH]ccc34)c2)C1 [Compound 17, 4-(1-(3-(cyanomethyl)-1-(ethylsulfonyl)azetidin-3-yl)-1H-pyrrol-3-yl)-1H-pyrrolo[2,3-b]pyridine-5-carbonitrile]	1.13	0.93	> 30000	–
CC1(S(=O)(=O)N2CC(CC#N)(n3cc(-c4c(C#N)cnc5[nH]ccc45)cn3)C2)CC1 [Compound 1, 4-(1-(3-(cyanomethyl)-1-((1-methylcyclopropyl)sulfonyl)azetidin-3-yl)-1H-pyrazol-4-yl)-1H-pyrrolo[2,3-b]pyridine-5-carbonitrile]	0.78	1.98	> 30000	–
CCS(=O)(=O)N1CC(CC#N)(n2cc(-c3c(Cl)cnc4[nH]ccc34)cn2)C1 [Compound 50, 2-(3-(4-(5-chloro-1H-pyrrolo[2,3-b]pyridin-4-yl)-1H-pyrazol-1-yl)-1-(ethylsulfonyl)azetidin-3-yl)acetonitrile]	–	0.67	> 30000	IC50 (CYP1A2): > 10 µM; IC50 (CYP2D6): > 10 µM; IC50 (CYP3A4): > 10 µM
CCS(=O)(=O)N1CC(CC#N)(n2cc(-c3c(F)cnc4[nH]ccc34)cn2)C1 [Compound 52-HCl, 2-(1-(ethylsulfonyl)-3-(4-(5-fluoro-1H-pyrrolo[2,3-b]pyridin-4-yl)-1H-pyrazol-1-yl)azetidin-3-yl)acetonitrile Hydrochloride Salt]	–	–	–	IC50 (JAK2; Hydrochloride Salt): 0.35 nM
